Laboratory results taken from ChEMBL document CHEMBL1201861, “Genomics of Drug Sensitity in Cancer screening data, Wellcome Trust Sanger Institute”.

Assays:
Experiment in all cases: cells
[1] = test system: SF-126; assay type: functional, cell-based, Homo sapiens; settings: Homo sapiens, SF-126;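 also: growth inhibition of human SF126 cells, read out with a cell viability assay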
Description: SANGER: Inhibition of human SF126 cell growth in a cell viability assay.

[2] = test system: GAK; assay type: functional, cell-based, Homo sapiens; settings: Homo sapiens, GAK;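 also: cell growth inhibition read out by a cell viability assay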
Description: SANGER: Inhibition of human GAK cell growth in a cell viability assay.

[3] = test system: NMC-G1; assay type: functional, cell-based, Homo sapiens; settings: Homo sapiens, NMC-G1;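 also: growth inhibition of the NMC-G1 cell line, measured with a cell viability read-out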
Description: SANGER: Inhibition of human NMC-G1 cell growth in a cell viability assay.

[4] = test system: TE-12; assay type: functional, cell-based; settings: Homo sapiens;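 also: growth inhibition of TE-12 cells, read out by a cell viability assay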
Description: SANGER: Inhibition of human TE-12 cell growth in a cell viability assay.

[5] = test system: KARPAS-45; assay type: functional, cell-based; settings: Homo sapiens;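 also: inhibition of cell line growth, read out through a viability assay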
Description: SANGER: Inhibition of human KARPAS-45 cell growth in a cell viability assay.

[6] = test system: CAL-12T; assay type: functional, cell-based, Homo sapiens; settings: Homo sapiens, CAL-12T;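 also: growth inhibition of human CAL-12T cells, read out with a cell viability assay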
Description: SANGER: Inhibition of human CAL-12T cell growth in a cell viability assay.

[7] = test system: RH-1; assay type: functional, cell-based, Homo sapiens; settings: Homo sapiens, RH-1;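 also: growth inhibition of human RH-1 cells, read out with a cell viability assay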
Description: SANGER: Inhibition of human RH-1 cell growth in a cell viability assay.

[8] = test system: CAL-72; assay type: functional, cell-based, Homo sapiens; settings: Homo sapiens, CAL-72;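 also: cell viability assay measuring inhibition of proliferation in the CAL-72 cell line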
Description: SANGER: Inhibition of human CAL-72 cell growth in a cell viability assay.

[9] = test system: D-542MG; assay type: functional, cell-based, Homo sapiens; settings: Homo sapiens, D-542MG
Description: SANGER: Inhibition of human D-542MG cell growth in a cell viability assay.

[10] = test system: A2058; assay type: functional, cell-based; settings: Homo sapiens;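 also: reduction of A2058 cell growth, read out with a viability assay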
Description: SANGER: Inhibition of human A2058 cell growth in a cell viability assay.

[11] = test system: DMS-79; assay type: functional, cell-based; settings: Homo sapiens;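 also: growth inhibition measured with a cell viability assay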
Description: SANGER: Inhibition of human DMS-79 cell growth in a cell viability assay.

[12] = test system: CWR22R; assay type: functional, cell-based, Homo sapiens; settings: Homo sapiens, 22Rv1;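 also: growth inhibition of 22Rv1 cells, read out with a cell viability assay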
Description: SANGER: Inhibition of human 22RV1 cell growth in a cell viability assay.

[13] = test system: Becker; assay type: functional, cell-based, Homo sapiens; settings: Homo sapiens, Becker;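 also: growth inhibition of Becker cells, read out with a cell viability assay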
Description: SANGER: Inhibition of human Becker cell growth in a cell viability assay.

[14] = test system: KGN; assay type: functional, cell-based, Homo sapiens; settings: Homo sapiens, KGN;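 also: growth inhibition of KGN cells, read out with a cell viability assay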
Description: SANGER: Inhibition of human KGN cell growth in a cell viability assay.

[15] = test system: MCF7; assay type: functional, cell-based, Homo sapiens; settings: Homo sapiens, MCF7;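 also: growth inhibition of human MCF7 cells, read out with a cell viability assay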
Description: SANGER: Inhibition of human MCF7 cell growth in a cell viability assay.

[16] = test system: NCI-H747; assay type: functional, cell-based; settings: Homo sapiens;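 also: growth inhibition of human NCI-H747 cells, read out by a cell viability assay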
Description: SANGER: Inhibition of human NCI-H747 cell growth in a cell viability assay.

[17] = test system: NCI-H82; assay type: functional, cell-based; settings: Homo sapiens;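 also: growth inhibition of NCI-H82 cells, measured with a cell viability readout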
Description: SANGER: Inhibition of human NCI-H82 cell growth in a cell viability assay.

[18] = test system: SK-MES-1; assay type: functional, cell-based, Homo sapiens; settings: Homo sapiens, SK-MES-1;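 also: growth inhibition of human SK-MES-1 cells, read out with a cell viability assay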
Description: SANGER: Inhibition of human SK-MES-1 cell growth in a cell viability assay.

[19] = test system: MDA-MB-231; assay type: functional, cell-based, Homo sapiens; settings: Homo sapiens, MDA-MB-231
Description: SANGER: Inhibition of human MDA-MB-231 cell growth in a cell viability assay.

[20] = test system: AM-38; assay type: functional, cell-based, Homo sapiens; settings: Homo sapiens, AM-38;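 also: growth inhibition of AM-38 cells of human origin, read out by a cell viability assay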
Description: SANGER: Inhibition of human AM-38 cell growth in a cell viability assay.

[21] = test system: SKG-IIIa; assay type: functional, cell-based, Homo sapiens; settings: Homo sapiens, SKG-IIIa;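 also: cell growth inhibition, read out with a cell viability assay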
Description: SANGER: Inhibition of human SKG-IIIa cell growth in a cell viability assay.

[22] = test system: SN12C; assay type: functional, cell-based, Homo sapiens; settings: Homo sapiens, SN12C;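 also: growth inhibition of human SN12C cells, measured by a cell viability assay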
Description: SANGER: Inhibition of human SN12C cell growth in a cell viability assay.

[23] = test system: Daoy; assay type: functional, cell-based, Homo sapiens; settings: Homo sapiens, Daoy;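 also: daoy cell growth inhibition, read out as cell viability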
Description: SANGER: Inhibition of human Daoy cell growth in a cell viability assay.

[24] = test system: NCI-H1623; assay type: functional, cell-based, Homo sapiens; settings: Homo sapiens, NCI-H1623;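 also: cell viability assay used as the read-out for growth inhibition of NCI-H1623 cells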
Description: SANGER: Inhibition of human NCI-H1623 cell growth in a cell viability assay.

[25] = test system: HC-1; assay type: functional, cell-based; settings: Homo sapiens;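 also: growth inhibition of HC-1 cells measured by a cell viability assay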
Description: SANGER: Inhibition of human HC-1 cell growth in a cell viability assay.

[26] = test system: HuP-T3; assay type: functional, cell-based, Homo sapiens; settings: Homo sapiens, HuP-T3;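 also: HuP-T3 cell growth inhibition, read out with a cell viability assay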
Description: SANGER: Inhibition of human HuP-T3 cell growth in a cell viability assay.

[27] = test system: D-336MG; assay type: functional, cell-based, Homo sapiens; settings: Homo sapiens, D-336MG
Description: SANGER: Inhibition of human D-336MG cell growth in a cell viability assay.

[28] = test system: MKN-45; assay type: functional, cell-based, Homo sapiens; settings: Homo sapiens, MKN-45;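 also: growth inhibition of human MKN-45 cells, measured with a cell viability assay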
Description: SANGER: Inhibition of human MKN45 cell growth in a cell viability assay.

[29] = test system: EW-18; assay type: functional, cell-based; settings: Homo sapiens;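 also: growth inhibition of EW-18 cells, read out by a cell viability assay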
Description: SANGER: Inhibition of human EW-18 cell growth in a cell viability assay.

[30] = test system: A673; assay type: functional, cell-based, Homo sapiens; settings: Homo sapiens, A673;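 also: growth inhibition of human A673 cells, read out through a cell viability assay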
Description: SANGER: Inhibition of human A673 cell growth in a cell viability assay.

[31] = test system: SW626; assay type: functional, cell-based, Homo sapiens; settings: Homo sapiens, SW626;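 also: growth inhibition of SW626 cells, measured with a cell viability assay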
Description: SANGER: Inhibition of human SW626 cell growth in a cell viability assay.

[32] = test system: Ramos-2G6-4C10; assay type: functional, cell-based; settings: Homo sapiens;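 also: growth inhibition of the cell line, measured by a cell viability read-out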
Description: SANGER: Inhibition of human Ramos-2G6-4C10 cell growth in a cell viability assay.

[33] = test system: RERF-LC-MS; assay type: functional, cell-based, Homo sapiens; settings: Homo sapiens, RERF-LC-MS;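 also: growth inhibition of human RERF-LC-MS cells, read out by a cell viability assay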
Description: SANGER: Inhibition of human RERF-LC-MS cell growth in a cell viability assay.

[34] = test system: NCI-H1651; assay type: functional, cell-based, Homo sapiens; settings: Homo sapiens, NCI-H1651;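 also: Read-out is a cell viability assay, with IC50 expressing inhibition of NCI-H1651 cell growth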
Description: SANGER: Inhibition of human NCI-H1651 cell growth in a cell viability assay.

[35] = test system: NCI-H209; assay type: functional, cell-based; settings: Homo sapiens;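 also: growth inhibition of human NCI-H209 cells, measured by a cell viability assay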
Description: SANGER: Inhibition of human NCI-H209 cell growth in a cell viability assay.

[36] = test system: U-266; assay type: functional, cell-based; settings: Homo sapiens
Description: SANGER: Inhibition of human U-266 cell growth in a cell viability assay.

[37] = test system: JVM-2; assay type: functional, cell-based; settings: Homo sapiens;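 also: growth inhibition of JVM-2 cells determined by a cell viability assay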
Description: SANGER: Inhibition of human JVM-2 cell growth in a cell viability assay.

[38] = test system: MDA-MB-453; assay type: functional, cell-based, Homo sapiens; settings: Homo sapiens, MDA-MB-453
Description: SANGER: Inhibition of human MDA-MB-453 cell growth in a cell viability assay.

[39] = test system: PFSK-1; assay type: functional, cell-based, Homo sapiens; settings: Homo sapiens, PFSK-1;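 also: cell viability assay measuring how strongly compounds suppress growth of human PFSK-1 cells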
Description: SANGER: Inhibition of human PFSK-1 cell growth in a cell viability assay.

[40] = test system: D283 Med; assay type: functional, cell-based, Homo sapiens; settings: Homo sapiens, D283 Med
Description: SANGER: Inhibition of human D-283MED cell growth in a cell viability assay.

[41] = test system: Mo; assay type: functional, cell-based; settings: Homo sapiens
Description: SANGER: Inhibition of human Mo-T cell growth in a cell viability assay.

[42] = test system: 639-V; assay type: functional, cell-based, Homo sapiens; settings: Homo sapiens, 639-V;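 also: growth inhibition of 639-V cells, read out with a cell viability assay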
Description: SANGER: Inhibition of human 639-V cell growth in a cell viability assay.

[43] = test system: RVH-421; assay type: functional, cell-based, Homo sapiens; settings: Homo sapiens, RVH-421
Description: SANGER: Inhibition of human RVH-421 cell growth in a cell viability assay.

[44] = test system: MLMA; assay type: functional, cell-based, Homo sapiens; settings: Homo sapiens, MLMA;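 also: growth inhibition of MLMA cells (human), determined through a cell viability readout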
Description: SANGER: Inhibition of human MLMA cell growth in a cell viability assay.

[45] = test system: 8505C; assay type: functional, cell-based, Homo sapiens; settings: Homo sapiens, 8505C
Description: SANGER: Inhibition of human 8505C cell growth in a cell viability assay.

[46] = test system: NCI-H292; assay type: functional, cell-based, Homo sapiens; settings: Homo sapiens, NCI-H292;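 also: growth inhibition of NCI-H292 cells, read out with a cell viability assay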
Description: SANGER: Inhibition of human NCI-H292 cell growth in a cell viability assay.

[47] = test system: A704; assay type: functional, cell-based, Homo sapiens; settings: Homo sapiens, A704;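 also: growth inhibition of human A704 cells, read out with a cell viability assay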
Description: SANGER: Inhibition of human A704 cell growth in a cell viability assay.

[48] = test system: SW756; assay type: functional, cell-based, Homo sapiens; settings: Homo sapiens, SW756;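 also: growth inhibition of human SW756 cells, read out with a cell viability assay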
Description: SANGER: Inhibition of human SW756 cell growth in a cell viability assay.

[49] = test system: NCI-H1304; assay type: functional, cell-based; settings: Homo sapiens;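 also: growth inhibition of the cancer cell line, measured in a cell viability assay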
Description: SANGER: Inhibition of human NCI-H1304 cell growth in a cell viability assay.

[50] = test system: AN3-CA; assay type: functional, cell-based; settings: Homo sapiens;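 also: growth inhibition of human AN3-CA cells measured by a cell viability assay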
Description: SANGER: Inhibition of human AN3-CA cell growth in a cell viability assay.

[51] = test system: KG-1; assay type: functional, cell-based; settings: Homo sapiens;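 also: growth inhibition of KG-1 cells, read out by a cell viability assay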
Description: SANGER: Inhibition of human KG-1 cell growth in a cell viability assay.

[52] = test system: SNU-C2B; assay type: functional, cell-based, Homo sapiens; settings: Homo sapiens, SNU-C2B;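 also: cell viability readout used to measure compound-driven suppression of SNU-C2B cell proliferation, IC50 marking half-maximal growth inhibition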
Description: SANGER: Inhibition of human SNU-C2B cell growth in a cell viability assay.

[53] = test system: HCC2157; assay type: functional, cell-based; settings: Homo sapiens;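 also: growth inhibition of the cancer cell line, read out as cell viability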
Description: SANGER: Inhibition of human HCC2157 cell growth in a cell viability assay.

`Nc1ccn([C@@H]2O[C@H](CO)[C@@H](O)[C@@H]2O)c(=O)n1` [CYTARABINE] showed an IC50 [1] of 693 nM, an IC50 [2] greater than 2000 nM and an IC50 [3] of 1960 nM. It also gave an IC50 [4] greater than 2000 nM, an IC50 [5] greater than 2000 nM and an IC50 [6] greater than 2000 nM. It also gave an IC50 [7] of 328 nM, an IC50 [8] greater than 2000 nM and an IC50 [9] greater than 2000 nM. For the same compound, the IC50 [10] was 687 nM, the IC50 [11] was greater than 2000 nM and the IC50 [12] was greater than 2000 nM. The IC50 [13] was 1100 nM, the IC50 [14] was greater than 2000 nM and the IC50 [15] was greater than 2000 nM. For the same compound, the IC50 [16] was greater than 2000 nM, the IC50 [17] was greater than 2000 nM and the IC50 [18] was 807 nM. The IC50 [19] was greater than 2000 nM, the IC50 [20] was 1470 nM and the IC50 [21] was 915 nM. For the same compound, the IC50 [22] was 623 nM, the IC50 [23] was 532 nM and the IC50 [24] was 536 nM. The IC50 [25] was 1080 nM, the IC50 [26] was 856 nM and the IC50 [27] was 805 nM. It also gave an IC50 [28] of 1650 nM, an IC50 [29] greater than 2000 nM and an IC50 [30] of 224 nM. It also gave an IC50 [31] greater than 2000 nM, an IC50 [32] of 868 nM and an IC50 [33] of 1760 nM. The IC50 [34] was greater than 2000 nM, the IC50 [35] was greater than 2000 nM and the IC50 [36] was greater than 2000 nM. The IC50 [37] was greater than 2000 nM, the IC50 [38] was greater than 2000 nM and the IC50 [39] was greater than 2000 nM. For the same compound, the IC50 [40] was 360 nM, the IC50 [41] was greater than 2000 nM and the IC50 [42] was greater than 2000 nM. For the same compound, the IC50 [43] was greater than 2000 nM, the IC50 [44] was 55.5 nM and the IC50 [45] was greater than 2000 nM. The IC50 [46] was 114 nM, the IC50 [47] was greater than 2000 nM and the IC50 [48] was 719 nM. For the same compound, the IC50 [49] was greater than 2000 nM, the IC50 [50] was 1840 nM and the IC50 [51] was 1160 nM. It also gave an IC50 [52] greater than 2000 nM.
For `C=CCNC1=C2C[C@@H](C)C[C@H](OC)[C@H](O)[C@@H](C)/C=C(\C)[C@H](OC(N)=O)[C@@H](OC)/C=C\C=C(/C)C(=O)NC(=CC1=O)C2=O` [TANESPIMYCIN], the IC50 [1] was greater than 1000 nM, the IC50 [2] was 136 nM and the IC50 [3] was 293 nM. The IC50 [4] was greater than 1000 nM, the IC50 [5] was 379 nM and the IC50 [6] was 428 nM. The IC50 [7] was greater than 1000 nM, the IC50 [8] was greater than 1000 nM and the IC50 [9] was greater than 1000 nM. It also gave an IC50 [10] of 72.3 nM, an IC50 [53] of 388 nM and an IC50 [12] greater than 1000 nM. For the same compound, the IC50 [13] was 38.9 nM, the IC50 [14] was greater than 1000 nM and the IC50 [15] was 96.8 nM. For the same compound, the IC50 [16] was 242 nM, the IC50 [17] was greater than 1000 nM and the IC50 [18] was 36.1 nM. For the same compound, the IC50 [19] was greater than 1000 nM, the IC50 [20] was 208 nM and the IC50 [21] was 49.9 nM. For the same compound, the IC50 [22] was 101 nM, the IC50 [23] was 317 nM and the IC50 [24] was greater than 1000 nM. It also gave an IC50 [26] of 401 nM, an IC50 [27] of 33.1 nM and an IC50 [28] of 82.2 nM. The IC50 [29] was 389 nM, the IC50 [30] was greater than 1000 nM and the IC50 [31] was 335 nM. For the same compound, the IC50 [32] was greater than 1000 nM, the IC50 [33] was 746 nM and the IC50 [34] was 700 nM. For the same compound, the IC50 [35] was greater than 1000 nM, the IC50 [36] was greater than 1000 nM and the IC50 [37] was greater than 1000 nM. The IC50 [38] was 672 nM, the IC50 [39] was greater than 1000 nM and the IC50 [40] was greater than 1000 nM. For the same compound, the IC50 [41] was greater than 1000 nM, the IC50 [42] was 150 nM and the IC50 [43] was 191 nM. The IC50 [44] was greater than 1000 nM, the IC50 [45] was 1000 nM and the IC50 [46] was 131 nM. The IC50 [47] was greater than 1000 nM, the IC50 [48] was 442 nM and the IC50 [49] was greater than 1000 nM. The IC50 [50] was 50 nM, the IC50 [51] was greater than 1000 nM and the IC50 [52] was 580 nM.
